“And” between values parts separate entries of the source, which are not always exact repeats. Equal entries are not always repeated.
Tests used:
PCTAIRE1 = PCTAIRE1 (Homo sapiens, UniProt Q00536); assay: KiNativ, OCI cells live cell; assay type: cell-based; details: 2 h, labeling site Lys1, peptide […]
LCK = LCK (Homo sapiens, UniProt P06239); assay: KiNativ, OCI cells live cell; assay type: cell-based; details: 2 h, labeling site Activation Loop, peptide […]
CDC2 = CDC2 (Homo sapiens, UniProt P06493); assay: KiNativ, OCI cells live cell; assay type: cell-based; details: 2 h
MARK2, MARK3 = assay: KiNativ, OCI cells live cell; assay type: cell-based, human; details: labeling site Lys2, peptide DLKAENLLLDADMNIK
RSK2 domain2 = molecular target: T1, RSK2 domain2 (Homo sapiens, UniProt P51812); assay: KiNativ, OCI cells live cell; assay type: cell-based; details: 2 h, labeling site Lys2, peptide […]
T1 construct: RSK2 domain2

ARAF = ARAF (Homo sapiens, UniProt P10398); assay: KiNativ, OCI cells live cell; assay type: cell-based; details: 2 h, labeling site Lys2, peptide […]
cord blood CD34+ cells = assay: CFU assay, normal cells; assay type: cell-based, human; details: 2 donors
Procedure: For human primary CFU assays, cells were cultured in MethoCult H4035 Optimum without EPO (Stemcell Technologies). For mouse primary CFU assays, cells were directly cultured in MethoCult M3231 (Stemcell Technologies) supplemented with 45 ng/mL of murine IL-6 (mIL-6), mIL-3, and mSCF. Both human and mouse primary cells 10,000 cells were plated in duplicate for each drug concentration. For cell line CFU assays, MV4-11 cells were treated with drugs in the presence of 20 ng/mL IL-3, GM-CSF, or FGF2. Cells were plated in MethoCult H4230 (Stemcell Technologies) in duplicates at 250 cells/plate. Plates were placed in a 37°C incubator for 7 or 14 days for human cell lines and for mouse or human primary cells, respectively. Colonies were identified as clusters containing 40 or more cells. For CFU assays using human primary CD34^+ cells, umbilical cord blood was obtained from the OSU Comprehensive Cancer Center (CCC) Leukemia Tissue Bank Shared Resource, and mononuclear cells were isolated by using density gradient centrifugation. CD34^+ cells were purified using the CD34 UltraPure MicroBead Kit (Miltenyi Biotec) according to the manufacturer’s instructions. CFU assay with CD34^+ cells was performed as described above, and the total number of colonies were counted after 7–10 days.

OCI-AML3 cells = assay: Cell cycle analysis; assay type: cell-based, human; details: 20 nM, 12–24 hours
Procedure: (§1) Luc+ or MOLM13-Res -Luc+ cells, 0.5 million OCI-AML3 -Luc+ cells, and 10,000 Ba/F3-FLT3-ITD/F691L-GFP+ cells. Weekly tumor engraftment of cell line xenograft models were assessed after injection of D-luciferin (150mg/kg i.p.; Gold Biotechnology, Inc, St. Louis, MO) on Xenogen IVIS-200 imaging system (Perkin Elmer, Waltham, MA) or GFP monitoring by peripheral blood via BD LSR II flow cytometer (BD Biosciences, San Jose, CA). Signal intensity was analyzed using Living Image Software (PerkinElmer) or FlowJo v10.0.08 software (FlowJo, LLC, Ashland, OR). Mice were randomized to treatment groups based on signal intensity and leukemia burden. Drug treatments were started on days 3, 7, or 13 after cell injection in OCI-AML3, MOLM13, and MOLM13-Res xenografts, respectively. In murine AML transplantation model, 1 million FLT3-ITD+/-/IDH2-R140Q+/- splenocytes (in house colony) were intravenously injected in male NSG mice. On day 7, mice were started on drug treatments. […]
(§2) At indicated time points, cells were collected and washed with PBS. CD11b expression was measured using anti-CD11b -APC antibody (BioLegend, San Diego, CA). […] CD11b expression and apoptosis were measured by BD LSR II flow cytometer. […]
(§3) with DAPI in 0.1% Triton-X (ThermoFisher Scientific) PBS for 30 minutes at room temperature and protected from light. The DNA content was determined using a BD LSR II flow cytometer. […]

[1] = system: MV4-11, MOLM13, and MOLM13-RES cells; assay: Cell cycle analysis; assay type: cell-based, human; details: 20 nM, 12 hours
Procedure: as §1, §2, §3

FLT3 = molecular target: T2, FLT3 (Homo sapiens, UniProt P36888); assay: KdELECT binding assay; details: FLT3 WT
T2 construct: purchased Eurofins DiscoverX
T2 sequence (P36888 27-993): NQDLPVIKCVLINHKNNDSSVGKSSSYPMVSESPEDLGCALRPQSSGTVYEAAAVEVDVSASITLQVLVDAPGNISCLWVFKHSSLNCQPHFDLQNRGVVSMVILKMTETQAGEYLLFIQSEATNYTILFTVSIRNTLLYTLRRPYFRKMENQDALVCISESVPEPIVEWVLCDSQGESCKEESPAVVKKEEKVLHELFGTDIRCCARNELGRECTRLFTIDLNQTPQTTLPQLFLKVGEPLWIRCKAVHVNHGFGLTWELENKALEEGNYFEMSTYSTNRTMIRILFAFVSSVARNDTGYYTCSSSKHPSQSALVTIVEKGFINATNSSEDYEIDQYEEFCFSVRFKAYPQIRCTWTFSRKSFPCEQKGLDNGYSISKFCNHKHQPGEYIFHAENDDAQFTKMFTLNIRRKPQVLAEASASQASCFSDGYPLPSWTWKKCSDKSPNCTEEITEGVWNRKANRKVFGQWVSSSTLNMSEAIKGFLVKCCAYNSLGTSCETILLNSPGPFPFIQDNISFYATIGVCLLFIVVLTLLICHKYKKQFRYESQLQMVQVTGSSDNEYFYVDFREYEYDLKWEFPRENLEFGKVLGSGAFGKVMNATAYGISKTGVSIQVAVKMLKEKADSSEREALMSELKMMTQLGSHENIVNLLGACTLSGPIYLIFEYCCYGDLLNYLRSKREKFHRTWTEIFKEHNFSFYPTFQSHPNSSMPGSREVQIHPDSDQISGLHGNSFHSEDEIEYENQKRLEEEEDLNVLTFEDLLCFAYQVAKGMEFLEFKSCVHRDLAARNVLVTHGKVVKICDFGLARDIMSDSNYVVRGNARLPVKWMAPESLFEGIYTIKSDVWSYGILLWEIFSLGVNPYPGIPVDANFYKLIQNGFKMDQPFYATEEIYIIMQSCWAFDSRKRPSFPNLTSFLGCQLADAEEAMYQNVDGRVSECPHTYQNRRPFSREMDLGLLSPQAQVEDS

Sequence of CDC2 (P06493 whole entry): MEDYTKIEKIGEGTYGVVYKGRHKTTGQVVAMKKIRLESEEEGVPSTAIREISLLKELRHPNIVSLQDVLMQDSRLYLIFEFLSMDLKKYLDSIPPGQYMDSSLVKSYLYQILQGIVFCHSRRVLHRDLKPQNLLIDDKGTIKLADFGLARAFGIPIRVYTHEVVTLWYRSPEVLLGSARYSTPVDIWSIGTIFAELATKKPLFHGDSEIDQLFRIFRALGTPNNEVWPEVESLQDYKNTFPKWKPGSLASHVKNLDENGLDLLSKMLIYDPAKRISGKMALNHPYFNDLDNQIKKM
Sequence of LCK (P06239 whole entry): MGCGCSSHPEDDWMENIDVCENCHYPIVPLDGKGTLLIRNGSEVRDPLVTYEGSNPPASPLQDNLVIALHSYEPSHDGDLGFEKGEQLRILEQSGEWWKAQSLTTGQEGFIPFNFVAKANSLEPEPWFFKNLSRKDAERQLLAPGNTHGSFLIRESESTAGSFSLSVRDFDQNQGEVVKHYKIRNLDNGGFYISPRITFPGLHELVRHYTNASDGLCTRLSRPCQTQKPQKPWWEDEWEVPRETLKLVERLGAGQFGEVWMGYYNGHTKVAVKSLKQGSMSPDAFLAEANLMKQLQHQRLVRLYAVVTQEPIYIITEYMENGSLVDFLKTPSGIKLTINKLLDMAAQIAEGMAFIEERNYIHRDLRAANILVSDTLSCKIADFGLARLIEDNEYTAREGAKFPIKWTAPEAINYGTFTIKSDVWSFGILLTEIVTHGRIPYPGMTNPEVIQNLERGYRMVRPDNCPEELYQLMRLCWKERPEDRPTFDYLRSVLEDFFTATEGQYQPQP
Sequence of ARAF (P10398 whole entry): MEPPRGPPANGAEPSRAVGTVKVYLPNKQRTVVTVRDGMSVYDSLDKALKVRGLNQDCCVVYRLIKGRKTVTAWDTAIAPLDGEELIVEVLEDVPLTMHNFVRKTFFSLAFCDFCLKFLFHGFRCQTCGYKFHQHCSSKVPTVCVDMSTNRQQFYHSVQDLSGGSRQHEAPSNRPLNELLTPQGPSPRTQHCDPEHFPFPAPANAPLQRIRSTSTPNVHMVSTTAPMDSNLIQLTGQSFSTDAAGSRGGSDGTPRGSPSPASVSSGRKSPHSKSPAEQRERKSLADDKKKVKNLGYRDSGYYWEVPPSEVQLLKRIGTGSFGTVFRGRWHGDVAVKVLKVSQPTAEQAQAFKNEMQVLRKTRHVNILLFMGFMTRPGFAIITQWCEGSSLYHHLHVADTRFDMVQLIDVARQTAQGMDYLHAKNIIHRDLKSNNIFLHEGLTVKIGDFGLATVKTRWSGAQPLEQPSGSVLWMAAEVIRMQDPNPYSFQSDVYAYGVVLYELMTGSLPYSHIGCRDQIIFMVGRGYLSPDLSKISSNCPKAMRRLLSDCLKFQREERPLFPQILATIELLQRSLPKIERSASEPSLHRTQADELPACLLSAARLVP
T1 sequence (P51812 whole entry, the tested form may be a part): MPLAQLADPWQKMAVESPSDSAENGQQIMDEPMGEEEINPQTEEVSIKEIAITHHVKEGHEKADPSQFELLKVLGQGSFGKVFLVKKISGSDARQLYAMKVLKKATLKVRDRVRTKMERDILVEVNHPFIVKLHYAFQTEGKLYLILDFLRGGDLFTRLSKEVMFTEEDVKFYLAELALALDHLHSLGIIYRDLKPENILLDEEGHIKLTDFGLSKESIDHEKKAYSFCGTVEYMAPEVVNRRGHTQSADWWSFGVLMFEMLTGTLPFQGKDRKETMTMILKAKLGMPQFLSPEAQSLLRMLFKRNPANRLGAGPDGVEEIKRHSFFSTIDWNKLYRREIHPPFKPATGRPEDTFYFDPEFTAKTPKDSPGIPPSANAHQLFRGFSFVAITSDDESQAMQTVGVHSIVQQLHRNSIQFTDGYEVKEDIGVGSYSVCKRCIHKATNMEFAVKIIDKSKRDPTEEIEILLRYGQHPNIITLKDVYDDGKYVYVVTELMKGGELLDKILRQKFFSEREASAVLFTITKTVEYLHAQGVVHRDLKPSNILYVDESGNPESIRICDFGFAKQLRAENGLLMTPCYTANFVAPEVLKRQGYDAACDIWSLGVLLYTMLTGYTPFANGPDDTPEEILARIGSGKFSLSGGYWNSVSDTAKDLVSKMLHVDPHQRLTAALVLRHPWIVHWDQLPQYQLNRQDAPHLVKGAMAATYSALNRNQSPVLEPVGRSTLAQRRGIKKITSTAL
Sequence of PCTAIRE1 (Q00536 whole entry): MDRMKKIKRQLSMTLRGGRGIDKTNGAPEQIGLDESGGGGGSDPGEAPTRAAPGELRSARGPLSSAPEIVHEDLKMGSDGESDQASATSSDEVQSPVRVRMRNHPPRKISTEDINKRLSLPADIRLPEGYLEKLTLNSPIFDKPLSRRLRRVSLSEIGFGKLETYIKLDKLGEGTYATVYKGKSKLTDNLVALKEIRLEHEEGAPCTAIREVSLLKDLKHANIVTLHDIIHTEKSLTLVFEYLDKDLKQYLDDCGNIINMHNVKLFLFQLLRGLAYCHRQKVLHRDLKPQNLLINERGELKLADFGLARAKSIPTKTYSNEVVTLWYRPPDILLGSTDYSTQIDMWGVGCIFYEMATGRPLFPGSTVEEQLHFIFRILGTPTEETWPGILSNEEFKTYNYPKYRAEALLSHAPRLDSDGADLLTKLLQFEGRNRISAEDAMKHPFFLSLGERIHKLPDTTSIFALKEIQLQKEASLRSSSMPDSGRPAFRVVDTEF

CN1CCN(Cc2ccc(Nc3ncc(Cl)c(Nc4ccccc4S(=O)(=O)N(C)C)n3)cc2)CC1 [TP-0903]
inhibition at 0.1 µM (PCTAIRE1): 94.6%
inhibition at 0.1 µM (LCK): -4.3%
inhibition at 0.1 µM (CDC2; labeling site Lys1, peptide TTGQVVAMKK): -4.5%
inhibition at 0.1 µM (CDC2; labeling site Lys2, peptide DLKPQNLLIDDK): -2.5%
inhibition at 0.1 µM (CDC2; labeling site Protein Kinase Domain, peptide KPLFHGDSEIDQLFR): -37.1%
Inhibition (MARK2, MARK3): 50.8%
inhibition at 0.1 µM (RSK2 domain2): -18.2%
inhibition at 0.1 µM (ARAF): -0.7%
Concentration inhibiting colony formation of CD34+ cells (cord blood CD34+ cells): 0.2 µM
Cell cycle (OCI-AML3 cells): G2-M cell cycle arrest
Cell cycle [1]: G2-M cell cycle arrest
Kd (FLT3): 0.93 nM and < 5 nM

Reference: publication PMC7714403 (JCI Insight, 2020)
